Reference: article PMC11640089, “JRM-28, a Novel HDAC2 Inhibitor, Upregulates Plasticity-Associated Proteins in Hippocampal Neurons and Enhances Morphological Plasticity via Activation of CREB: Implications for Alzheimer’s Disease” (Cells, 2024)
“And” between values parts separate entries of the source, which are not always exact repeats. Equal values may be shown once. Read-outs that look alike come from different tables or passages of the source.

Legend:
HDAC2 = HDAC2 (Homo sapiens, UniProt Q92769); assay: HDAC2 inhibition assay, luminometric method (HDAC-Glo I/II); type: biochemical; parameters: purchased BPS Bioscience 50002; conditions: HDAC2 0.5 nM, read-out: IC50 HDAC2 inhibition (luminescence)
Description: HDAC2 inhibition assay was performed by either the luminometric or fluorimetric method applying the following procedures. The table (Table 1) represents the details of different HDAC proteins and antibodies used in all biochemical assays.
HDAC2 inhibition assay was performed by HDAC-Glo™ I/II Assays and Screening System (Catalog# G6420, Promega Corporation, Madison, WI, USA) by the luminometric method according to the manufacturer’s protocol. […] The HDAC-2 inhibition assay was performed as previously described to determine IC values. In brief, the purified HDAC2 was diluted in HDAC assay buffer (provided with the HDAC-Glo™ I/II Assays and Screening System) to the same concentration based on their calculated molar mass. […] Next, 10 µL of JRM-28 after serial dilution was added to 10 µL of diluted HDAC2 in such a way that the final HDAC2 concentration was 0.5 nM in each well of a 384-well microplate (Greiner, Kremsmünster, Austria). After 30 min of incubation, 20 µL of the HDAC-Glo substrate/developing reagent was added to each well according to the manufacturer’s instructions. The 384-well plate was then agitated on an orbital shaker for the mixing of components in each well for another 30 min at room temperature. Finally, luminescence was measured using a POLARstar Omega plate reader (BMG Labtech, Ortenberg, Germany).

HDAC6 = target: T1, HDAC6 (Homo sapiens, UniProt Q9UBN7); assay: Fluorimetric HDAC inhibition assay, HDAC6; type: biochemical; conditions: reduced with DTT
T1 construct: purchased BPS Bioscience 50056
T1 sequence (Q9UBN7 1-1215): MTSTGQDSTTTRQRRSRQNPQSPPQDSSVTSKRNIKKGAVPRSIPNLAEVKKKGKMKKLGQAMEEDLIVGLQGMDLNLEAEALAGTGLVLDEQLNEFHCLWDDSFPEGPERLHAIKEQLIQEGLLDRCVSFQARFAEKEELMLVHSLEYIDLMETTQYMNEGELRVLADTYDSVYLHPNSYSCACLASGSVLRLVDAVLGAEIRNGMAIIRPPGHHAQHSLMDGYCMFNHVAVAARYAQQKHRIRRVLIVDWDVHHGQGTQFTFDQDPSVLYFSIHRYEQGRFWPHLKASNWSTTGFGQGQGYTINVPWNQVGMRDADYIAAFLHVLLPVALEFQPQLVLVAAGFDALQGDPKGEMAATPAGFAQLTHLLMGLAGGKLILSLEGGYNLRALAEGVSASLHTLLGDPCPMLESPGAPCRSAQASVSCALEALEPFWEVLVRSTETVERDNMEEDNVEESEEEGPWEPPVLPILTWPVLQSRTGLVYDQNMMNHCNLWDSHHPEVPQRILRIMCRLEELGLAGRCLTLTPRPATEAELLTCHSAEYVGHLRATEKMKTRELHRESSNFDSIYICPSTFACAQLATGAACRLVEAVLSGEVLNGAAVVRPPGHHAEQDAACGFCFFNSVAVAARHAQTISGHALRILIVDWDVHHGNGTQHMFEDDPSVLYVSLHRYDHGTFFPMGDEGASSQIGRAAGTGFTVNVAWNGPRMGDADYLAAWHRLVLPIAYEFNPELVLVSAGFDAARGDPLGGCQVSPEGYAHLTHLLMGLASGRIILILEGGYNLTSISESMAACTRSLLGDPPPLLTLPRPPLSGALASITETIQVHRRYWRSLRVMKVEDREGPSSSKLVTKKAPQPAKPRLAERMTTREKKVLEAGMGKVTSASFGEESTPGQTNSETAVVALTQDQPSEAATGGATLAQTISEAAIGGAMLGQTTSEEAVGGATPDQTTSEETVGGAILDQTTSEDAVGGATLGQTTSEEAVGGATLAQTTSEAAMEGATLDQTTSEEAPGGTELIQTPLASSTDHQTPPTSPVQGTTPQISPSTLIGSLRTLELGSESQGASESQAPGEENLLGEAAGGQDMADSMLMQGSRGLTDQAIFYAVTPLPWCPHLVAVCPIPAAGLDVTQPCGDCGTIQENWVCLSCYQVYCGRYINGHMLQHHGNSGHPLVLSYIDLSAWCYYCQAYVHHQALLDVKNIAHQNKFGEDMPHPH
Description: The inhibition of HDAC1, 2, 3, and 6 by JRM-28 was fluorometrically measured using the HDAC Fluorogenic Assay Kit (Catalog# 50034) by BPS bioscience. Purified recombinant human HDAC1 (Cat# 50051), HDAC3 (Cat# 50003), and HDAC6 (Cat# 50056) were also obtained from BPS Bioscience. The enzyme inhibition assay was performed according to the manufacturer’s protocol. […] Purified recombinant HDAC2 (supplied with the fluorogenic kit) was diluted to 6 ng/µL (5 µL/well with the supplied HDAC assay buffer). HDAC 1, 3, and 6 were also diluted to the optimized concentration (5 µL/well) with the HDAC assay buffer. The activity of JRM-28 was measured along with DTT control and DMSO as blank. After adding 5 µL of the diluted HDAC enzymes in designated wells, the 96-well plate (supplied with the kit) was incubated at 37 °C. Then, the reaction was initiated by adding 5 µL of diluted HDAC substrate to each well, followed by another incubation at 37 °C for 30 min. Next, 50 µL of the developer reagent was added to each well and incubated at room temperature for another 15 min. Finally, fluorescence was measured by a microplate absorbance spectrophotometer (PerkinElmer Enspire 2300 Multilabel Multimode Microplate Reader) with an excitation at λ = 485 nm and detection at λ = 528 nm.

Sequence of HDAC2 (Q92769 whole entry): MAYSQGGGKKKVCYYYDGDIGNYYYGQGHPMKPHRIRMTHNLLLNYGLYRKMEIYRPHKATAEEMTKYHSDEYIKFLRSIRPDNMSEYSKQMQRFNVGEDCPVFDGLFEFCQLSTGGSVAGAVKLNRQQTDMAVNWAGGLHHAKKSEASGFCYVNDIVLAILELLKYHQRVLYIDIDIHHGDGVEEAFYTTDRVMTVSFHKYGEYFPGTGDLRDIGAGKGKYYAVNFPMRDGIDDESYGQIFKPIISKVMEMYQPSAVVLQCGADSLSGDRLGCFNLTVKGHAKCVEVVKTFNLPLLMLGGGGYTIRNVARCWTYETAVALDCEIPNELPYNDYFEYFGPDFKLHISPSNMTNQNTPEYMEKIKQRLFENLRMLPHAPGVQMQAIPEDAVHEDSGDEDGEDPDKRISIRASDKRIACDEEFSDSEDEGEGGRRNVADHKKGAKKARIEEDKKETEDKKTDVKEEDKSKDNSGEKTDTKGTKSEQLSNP

CN(C(=O)CC(O)/C=C/CCSSCC/C=C/C(O)CC(=O)N(C)c1ccccc1)c1ccccc1 (stereo not drawn) [JRM-20, (4E,4’E)-7,7’-disulfanediylbis(3-hydroxy-N-methyl-N-phenylhept-4-enamide)]
IC50 (HDAC2; without DTT (non-reduced dimer)): 12.9 µM

CN(C(=O)C[C@@H](O)/C=C/CCS(=O)O)c1ccccc1 [JRM-28a]
Hill coefficient HDAC6 (fluorimetric) (HDAC6): −5.116

CN(C(=O)C[C@@H](O)/C=C/CCS)c1ccccc1 [JRM-28b]
IC50 (HDAC2; in the presence of DTT (reduced)): 2.7 µM and 2.71 µM
